# Reference: article PMC9847078, “On the plasticity of amyloid formation: The impact of destabilizing small to large substitutions on islet amyloid polypeptide amyloid formation” (Protein Science : A Publication of the Protein Society, 2023)
# Experiment: Peptide solubility measurement (micro‐BCA after centrifugation)
# Assay type: physicochemical
# Conditions: 200 μM peptide in 10 mM PBS (140 mM KCl), centrifuged 18,000 g 30 min, supernatant by micro‐BCA
# Description: Dry peptides were dissolved in HFIP to prepare the stock solutions. The concentrations of the stock solutions were measured by using freeze dried aliquots of the stock solutions with the micro‐BCA assay. Based on the stock solution concentrations, aliquots were prepared and lyophilized. The dry peptides were reconstructed in 10 mM phosphate buffer saline (140 mM KCl), pH 7.4 at a final peptide concentration of 200 μM. Immediately after reconstitution 10 μl of the sample was removed and the soluble peptide concentration was measured using the micro‐BCA assay. […] After 5 days, a 450 μl portion from each sample were removed and centrifuged at 18,000 g for 30 min (25°C). A 100 μl portion of the centrifuged supernatant was subjected to the micro‐BCA assay to calculate the amount of soluble peptide left after 5 days.
Compound,"Apparent solubility compared to wild type hIAPP (pH 7.4, 25°C, 5 days, differences not significant (p > 0.05))","Apparent solubility: amount of peptide remaining in the solution (pH 7.4, stood 7 days at room temperature)"
CC[C@H](C)[C@H](NC(=O)[C@H](C)NC(=O)[C@H](CC(C)C)NC(=O)[C@H](Cc1ccccc1)NC(=O)[C@H](CC(N)=O)NC(=O)[C@H](CC(N)=O)NC(=O)[C@H](CO)NC(=O)[C@H](CO)NC(=O)[C@H](Cc1c[nH]cn1)NC(=O)[C@@H](NC(=O)[C@H](CC(C)C)NC(=O)[C@H](Cc1ccccc1)NC(=O)[C@H](CC(N)=O)NC(=O)[C@H](C)NC(=O)[C@H](CC(C)C)NC(=O)[C@H](CCCNC(=N)N)NC(=O)[C@H](CCC(N)=O)NC(=O)[C@@H](NC(=O)[C@H](C)NC(=O)[C@@H]1CSSC[C@H](NC(=O)[C@@H](N)CCCCN)C(=O)N[C@@H](CC(N)=O)C(=O)N[C@@H]([C@@H](C)O)C(=O)N[C@@H](C)C(=O)N[C@@H]([C@@H](C)O)C(=O)N1)[C@@H](C)O)C(C)C)C(=O)N[C@@H](CC(C)C)C(=O)N[C@@H](CO)C(=O)N[C@@H](CO)C(=O)N[C@H](C(=O)N[C@@H](CC(N)=O)C(=O)N[C@H](C(=O)NCC(=O)N[C@@H](CO)C(=O)N[C@@H](CC(N)=O)C(=O)N[C@H](C(=O)N[C@@H](Cc1ccc(O)cc1)C(N)=O)[C@@H](C)O)C(C)C)[C@@H](C)O [G24L‐hIAPP],Slightly higher concentrations,
CC[C@H](C)[C@H](NC(=O)[C@H](C)NC(=O)[C@@H]1CCCN1C(=O)[C@H](Cc1ccccc1)NC(=O)[C@H](CC(N)=O)NC(=O)[C@H](CC(N)=O)NC(=O)[C@H](CO)NC(=O)[C@H](CO)NC(=O)[C@H](Cc1c[nH]cn1)NC(=O)[C@@H](NC(=O)[C@H](CC(C)C)NC(=O)[C@H](Cc1ccccc1)NC(=O)[C@H](CC(N)=O)NC(=O)[C@H](C)NC(=O)[C@H](CC(C)C)NC(=O)[C@H](CCCNC(=N)N)NC(=O)[C@H](CCC(N)=O)NC(=O)[C@@H](NC(=O)[C@H](C)NC(=O)[C@@H]1CSSC[C@H](NC(=O)[C@@H](N)CCCCN)C(=O)N[C@@H](CC(N)=O)C(=O)N[C@@H]([C@@H](C)O)C(=O)N[C@@H](C)C(=O)N[C@@H]([C@@H](C)O)C(=O)N1)[C@@H](C)O)C(C)C)C(=O)N[C@@H](CC(C)C)C(=O)N[C@@H](CO)C(=O)N[C@@H](CO)C(=O)N[C@H](C(=O)N[C@@H](CC(N)=O)C(=O)N[C@H](C(=O)NCC(=O)N[C@@H](CO)C(=O)N[C@@H](CC(N)=O)C(=O)N[C@H](C(=O)N[C@@H](Cc1ccc(O)cc1)C(N)=O)[C@@H](C)O)C(C)C)[C@@H](C)O [G24P‐hIAPP],,greater than 50 μM
